Where “and” joins values, the source holds several entries; their conditions need not be identical. Equal values may be shown once.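 Exposure lasted 48 hours, with cells grown in 96-well plates and compounds tested at five concentrations. Here, GI50 denotes the concentration required for 50% inhibition of growth. At the TGI there is no net growth.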
How the values were obtained:
Assay in all cases: NCI-60 cell line screen, 48 h
[1] = system: SR leukemia
[2] = system: OVCAR-4 ovarian
[3] = system: 786-0 renal
[4] = system: HCT-116 colon
[5] = system: RXF 393 renal
[6] = system: SK-MEL-28 melanoma
[7] = system: HL-60(TB) leukemia
[8] = system: SK-OV-3 ovarian
[9] = system: HT29 colon
[10] = system: DU-145 prostate

## COc1ccc(N=c2ssc3c(=S)ssc23)cc1
[1]
  TGI: 20.1 µM
[2]
  TGI: > 100 µM
[3]
  TGI: > 100 µM
[4]
  TGI: > 100 µM
[5]
  TGI: 38.7 µM
[6]
  TGI: 55.6 µM
[7]
  TGI: 28.2 µM
[8]
  TGI: > 100 µM

## COC(=O)C(Cc1ccccc1)NC(=O)NC(=O)NC(=O)CI (stereo unspecified)
[9]
  GI50: 14.2 µM
  TGI: 49.9 µM
[1]
  GI50: 1.2 µM
  TGI: 3.67 µM
[2]
  GI50: 4.41 µM
  TGI: 24.4 µM
[3]
  GI50: 3.35 µM
  TGI: 10.9 µM
[4]
  GI50: 3.27 µM
  TGI: 11.1 µM
[5]
  GI50: 7.75 µM
  TGI: 20.2 µM
[6]
  GI50: 3.5 µM
  TGI: 13.8 µM
[10]
  GI50: 12.1 µM
  TGI: 25.3 µM
[8]
  GI50: 15.8 µM
  TGI: 29.4 µM

## CCN1CCC(CCOC)(CN2c3ccccc3Sc3ccc(Cl)cc32)C1 (stereo unspecified)
[1]
  GI50: 4.01 µM
  TGI: > 100 µM
[2]
  GI50: 2.72 µM
  TGI: 8.66 µM
[3]
  GI50: 1.81 µM
  TGI: 3.39 µM
[4]
  GI50: 1.86 µM
  TGI: 3.32 µM
[5]
  GI50: 1.77 µM
  TGI: 4.03 µM
[6]
  GI50: 1.97 µM
  TGI: 3.62 µM
[10]
  GI50: 1.92 µM
  TGI: 3.68 µM
[8]
  GI50: 1.91 µM
  TGI: 3.88 µM

## COc1cc(C(=O)C/C(CCC(=O)Nc2ccccc2[N+](=O)[O-])=N\NC(=O)CC#N)ccc1O
[9]
  TGI: > 100 µM
[2]
  TGI: > 100 µM
[3]
  TGI: > 100 µM
[5]
  TGI: > 100 µM
[6]
  TGI: > 100 µM
[7]
  TGI: > 100 µM
[8]
  TGI: > 100 µM

## CCCCCCc1cc(C(=O)Nc2cccc(C(F)(F)F)c2)nc(N)n1
[9]
  TGI: > 100 µM
[1]
  TGI: > 100 µM
[2]
  TGI: > 100 µM
[3]
  TGI: > 100 µM
[4]
  TGI: > 100 µM
[5]
  TGI: > 100 µM
[6]
  TGI: > 100 µM
[7]
  TGI: > 100 µM
[8]
  TGI: > 100 µM

## COc1cc2c(cc1OCCCCOc1cc3c(cc1OC)C(=O)N1CCC[C@H]1CN3)N=C[C@@H]1CCCN1C2=O
[9]
  GI50: 2.37 µM
  TGI: > 23.2 µM
[2]
  GI50: 4.61 µM
  TGI: > 100 µM
[3]
  GI50: 2.94 µM
  TGI: > 100 µM
[4]
  GI50: 2.37 µM
  TGI: > 100 µM
[5]
  GI50: 0.29 µM
  TGI: 1.45 µM
[6]
  GI50: 2.86 µM
  TGI: 11.8 µM
[10]
  GI50: 2.46 µM
  TGI: > 100 µM
[8]
  GI50: 7.06 µM
  TGI: > 100 µM

## CCOC(=O)c1oc2ccc(OC)c3c2c1CCC3
[1]
  TGI: > 100 µM
[2]
  TGI: > 100 µM
[3]
  TGI: > 100 µM
[5]
  TGI: > 100 µM
[6]
  TGI: > 100 µM
[7]
  TGI: > 100 µM
[8]
  TGI: > 100 µM

## CC(=O)OC1CCn2nnc(CO[Si](C)(C)C(C)(C)C)c21 (stereo unspecified)
[9]
  TGI: > 100 µM
[1]
  TGI: > 100 µM
[2]
  TGI: > 100 µM
[3]
  TGI: > 100 µM
[4]
  TGI: > 100 µM
[5]
  TGI: > 100 µM
[6]
  TGI: > 100 µM
[8]
  TGI: > 100 µM

## CC(C)CC(CC1=CCC2CC1C2(C)C)C1=C(O)C(C)(C)C(=O)C(C)(C)C1=O (stereo unspecified)
[9]
  GI50: 0.383 µM
  TGI: 11.2 µM
[2]
  GI50: 0.486 µM
  TGI: > 100 µM
[3]
  GI50: 0.363 µM
  TGI: > 100 µM
[4]
  GI50: 0.376 µM
  TGI: 1.46 µM
[5]
  GI50: 0.434 µM
  TGI: 3.83 µM
[7]
  GI50: 0.205 µM
  TGI: 0.423 µM
[10]
  GI50: 0.465 µM
  TGI: > 100 µM
[8]
  GI50: 0.256 µM
  TGI: 0.733 µM

## Brc1cccc(C2SCc3nc4ccccc4n32)c1 (stereo unspecified)
[9]
  TGI: 52.3 µM
[1]
  TGI: 57.7 µM
[2]
  TGI: 63.3 µM
[3]
  TGI: 44.5 µM
[4]
  TGI: 29.4 µM
[5]
  TGI: 26.4 µM
[6]
  TGI: 47.9 µM
[7]
  TGI: 34.9 µM
[8]
  TGI: 65 µM

## C=C1COC(/C=C(\C)CC/C=C(\C)CCl)C1 (stereo unspecified)
[9]
  TGI: > 100 µM
[2]
  TGI: > 100 µM
[3]
  TGI: > 100 µM
[4]
  TGI: > 100 µM
[5]
  TGI: > 100 µM
[6]
  TGI: > 100 µM
[7]
  TGI: > 100 µM
[8]
  TGI: > 100 µM

## N#CC(C(=O)CCC(=O)Nc1cccc(Cl)c1)c1ccccc1 (stereo unspecified)
[9]
  TGI: > 100 µM
[1]
  TGI: > 100 µM
[2]
  TGI: > 100 µM
[3]
  TGI: > 100 µM
[4]
  TGI: > 100 µM
[5]
  TGI: > 100 µM
[6]
  TGI: > 100 µM
[7]
  TGI: > 100 µM
[8]
  TGI: > 100 µM

## CCOC(=O)C(=O)Nc1c(CC)cccc1C(C)C
[9]
  TGI: > 100 µM
[2]
  TGI: > 100 µM
[3]
  TGI: > 100 µM
[4]
  TGI: > 100 µM
[5]
  TGI: > 100 µM
[6]
  TGI: > 100 µM
[8]
  TGI: > 100 µM

## Cc1ccc(C2=NOC3=c4ccccc4=CSC3=C2c2ccc([N+](=O)[O-])cc2)cc1
[9]
  GI50: > 100 µM
  TGI: > 100 µM
[2]
  GI50: 95.6 µM
  TGI: > 100 µM
[3]
  GI50: 0.58 µM
  TGI: 72.5 µM
[4]
  GI50: 3.35 µM
  TGI: > 100 µM
[5]
  GI50: 18.7 µM
  TGI: 64.6 µM
[6]
  GI50: > 100 µM
  TGI: > 100 µM
[7]
  GI50: > 100 µM
  TGI: > 100 µM
[10]
  GI50: 15.2 µM
  TGI: > 100 µM
[8]
  GI50: 6.91 µM
  TGI: 49 µM

## C[Si](C)(C)OC1(C#N)C2C3CC4C2C(=O)C2C4C3C21 (stereo unspecified)
[1]
  TGI: > 100 µM
[2]
  TGI: > 100 µM
[3]
  TGI: > 100 µM
[4]
  TGI: > 100 µM
[5]
  TGI: > 100 µM
[6]
  TGI: > 100 µM
[7]
  TGI: > 100 µM
[8]
  TGI: > 100 µM

## CS(=O)(=O)c1ccc(C(=O)Nc2ccc(Cl)c(-c3ccccn3)c2)c(Cl)c1
[1]
  TGI: > 100 µM and 20.9 µM
[2]
  GI50: 29.7 µM
  TGI: > 100 µM
[3]
  GI50: 63.2 µM
  TGI: > 100 µM
[6]
  TGI: > 100 µM and 16.3 µM
[10]
  TGI: > 100 µM
[8]
  GI50: > 100 µM
  TGI: > 100 µM

## Nn1c(-c2ccccc2Cl)nc2ccccc2c1=O
[9]
  TGI: > 100 µM
[2]
  TGI: > 100 µM
[3]
  TGI: > 100 µM
[4]
  TGI: > 100 µM
[6]
  TGI: > 100 µM
[7]
  TGI: > 100 µM
[8]
  TGI: > 100 µM

## COC1CC(OS(=O)(=O)c2ccc(C)cc2)C(OC(=O)c2ccccc2)C(C)O1 (stereo unspecified)
[9]
  GI50: > 100 µM
  TGI: > 100 µM
[1]
  TGI: > 10 µM
[2]
  GI50: > 100 µM
  TGI: > 100 µM
[3]
  GI50: > 100 µM
  TGI: > 100 µM
[4]
  TGI: > 10 µM
[5]
  GI50: > 10 µM
  TGI: > 100 µM
[6]
  GI50: > 100 µM
  TGI: > 100 µM
[7]
  GI50: > 100 µM
  TGI: > 100 µM
[8]
  GI50: > 100 µM
  TGI: > 100 µM

## CCC1CN2CCc3cc(OC)c(OC)cc3C2CC1CC1c2cc(OC)c(OC)cc2CCN1C(=O)C1CCCN1C(=O)OCc1ccccc1 (stereo unspecified)
[9]
  TGI: 27.4 µM
[2]
  TGI: 27.4 µM
[3]
  TGI: 40.8 µM
[4]
  TGI: 25.8 µM
[5]
  TGI: 22.4 µM
[6]
  TGI: 30.7 µM
[7]
  TGI: 28.9 µM

## Cn1cnc2nc(Cl)nc(NC(C)(C)C(C)(C)O)c21
[9]
  TGI: > 100 µM
[1]
  TGI: > 100 µM
[2]
  TGI: > 100 µM
[3]
  TGI: > 100 µM
[4]
  TGI: > 100 µM
[5]
  TGI: > 100 µM
[7]
  TGI: > 100 µM
[8]
  TGI: > 100 µM
